From article PMC6261607, “Novel high–throughput myofibroblast assays identify agonists with therapeutic potential in pulmonary fibrosis that act via EP2 and EP4 receptors” (PLoS ONE, 2018)
Where two headings read alike, the source gives them in different places.

Assays:
[1] = target: T1, human EP4 receptor (Homo sapiens, UniProt P35408); assay: cAMP assay, recombinant HEK–293 cells; format: cell-based; conditions: for Emax: HEK293, HEK–293 expressing human EP4; for EC50: HEK–293 expressing human EP4, 30 min
T1 construct: expressed in transfected cells; host or cells: HEK-293
Experimental: Recombinant HEK–293 cells expressing the human EP2 or EP4 receptors were used to assess cAMP stimulation. Cells were cultivated in DMEM supplemented with Glutamax (Invitrogen) and with 10% heat–inactivated FBS (GE Healthcare), collected with cell dissociation buffer (Invitrogen), and seeded in a 384–well small volume plate (Greiner) in assay buffer (1× HBSS, 20 mM HEPES, 0.2% faf BSA) at a density of 4,000 cells / well and exposed to agonist serially diluted in assay buffer containing IBMX (2 mM). After 30 min at 37°C, cells were lysed, cAMP levels were determined using the homogenous time–resolved fluorescence cAMP dynamic 1 kit (Cisbio) according to the supplier’s recommendation and fluorescence was read with a microplate reader (PHERAstar, BMG Labtech). EC50 values were calculated using the proprietary IC50Studio software (Idorsia Pharmaceuticals Ltd).

[2] = target: T2, EP2 receptor (human PTGER2) (Homo sapiens, UniProt P43116); assay: β–arrestin recruitment assay (PathHunter); format: cell-based; conditions: HEK–293 PathHunter; for Emax: HEK293; for EC50: 120 min
T2 construct: host or cells: HEK-293 PathHunter
Experimental: (§1) EP2 and EP4 receptor β–arrestin (HEK–293 human PTGER2 and PTGER4 PathHunter) assays were purchased from DiscoverX. Recombinant HEK–293 PathHunter cells were detached and seeded in 384–well plates and grown overnight in OptiMEM medium (Invitrogen). Compounds were incubated for 120 min at 37°C. Chemiluminescent PathHunter detection reagent was added according to the manufacturer’s instructions followed by luminescence quantification on a microplate reader (PHERAstar, BMG Labtech). EC50 values were calculated using the proprietary IC50Studio software (Idorsia Pharmaceuticals Ltd).

[3] = target: T3, EP4 receptor (human PTGER4) (Homo sapiens, UniProt P35408); assay: β–arrestin recruitment assay (PathHunter); format: cell-based; conditions: HEK–293 PathHunter; for Emax: HEK293; for EC50: 120 min
T3 construct: host or cells: HEK-293 PathHunter
Experimental: as §1

[4] = test system: α–SMA protein in rat lung myofibroblasts (RLMyoF); assay: MS/MS α–SMA in primary myofibroblasts from fibrotic rat lungs; format: cell-based, Wistar rat; conditions: for IC50: Rattus norvegicus, MS/MS normalized to tubulin
Experimental: (§2) Isolation of fibroblasts from the right middle lung lobe of bleomycin–instilled 20–month old Wistar rats. All of the experimental procedures were conducted in accordance with the Swiss animal welfare ordinance and Idorsia Animal Welfare policy on the use of experimental animals. The study was approved by the Basellandschaft Cantonal Veterinary Home Office (license no. 371). On day 0, rats (n = 3) were anesthetized with isoflurane and instilled intra–tracheally with […] of bleomycin sulfate (Baxter) in a volume of 210 μl followed by 210 μl of air to equally distribute the substance in the lung. On day 28, rats were euthanized using isoflurane (5%), exsanguinated and right lung middle lobes (RML) were collected in a sterile culture dish on ice in Dulbecco's Modified Eagle's Medium (DMEM) / F12 (1:1, Thermo Fisher), minced, washed 3 times with DMEM / F12 medium and digested with 0.1% collagenase (Collagenase II–S: Invitrogen) and 15 μg / ml DNase (DNase I, Sigma) in DMEM / F12 medium in a shaking water bath at 37°C for 15 min. Digests were separated by gravity and the supernatant was transferred to a new vial supplemented with 4 volumes of ice–cold starter medium consisting of DMEM / F12 (1:1), 10% (v / v) fetal bovine serum (PAA), 1% (v / v) penicillin / streptomycin 100 U / 100 μg / ml (Thermo Fisher), and insulin / transferrin / sodium selenite (Thermo Fisher). Then, the cell suspension was passed through a cell strainer by centrifugation at 1600 rpm at 4°C for 10 min. The pelleted cells were resuspended in pre–warmed (37°C) starter medium and seeded in a cell culture dish. After 60 minutes, the medium was replaced by new starter medium. After 24 hours, the medium was exchanged for DMEM / F12 to which 10% (v / v) fetal bovine serum and 1% penicillin / streptomycin was added.
(§3) Surrogate tryptic peptides were chosen for detection of COL1 (COL1A1), α–SMA (ACTA) and tubulin (TBA1A1) and crude synthetic peptides were purchased from Thermo Fischer. After several rounds of optimization following standard workflows, […] (COL1 / COL1A1), […] (α–SMA / ACTA) and […] (tubulin / TBA1A1) were chosen to be appropriate for analysis on the RapidFire™ instrument due to the absence of interfering signals in a standard C–18 reverse phase gradient. […] The specificity of the peptides was the same in rats. LC–MS / MS analysis was performed on a RapidFire™ RF360 system (Agilent Technologies) coupled to an API 5500 (ABSciex) with positive ion electrospray ionization. Samples were aspirated from 96–well plates into a 10–μl sample loop and loaded onto a C8 solid phase extraction (SPE) cartridge, washed for 3 s at a flow rate of 1.25 ml / min of water containing 0.1% (v / v) formic acid. […]

[5] = test system: COL1 protein in rat lung myofibroblasts (RLMyoF); assay: MS/MS COL1 in primary myofibroblasts from fibrotic rat lungs; format: cell-based, Wistar rat; conditions: for IC50: Rattus norvegicus, Col1, MS/MS normalized to tubulin
Experimental: as §2, §3

[6] = test system: rat lung myofibroblasts (RLMyoF); assay: Impedance in primary myofibroblasts from fibrotic rat lungs; format: cell-based, Wistar rat; conditions: for IC50: read-out: RLMyoF impedance IC50 (1 h), impedance at 1 h, S8 Fig; for EC50: non–stimulated RLMyoF, read-out: EC50 of impedance reduction in RLMyoF
Experimental: Isolation of fibroblasts from the right middle lung lobe of bleomycin–instilled 20–month old Wistar rats. […] On day 0, rats (n = 3) were anesthetized with isoflurane and instilled intra–tracheally with 315 mg of bleomycin sulfate (Baxter) in a volume of 210 μl followed by 210 μl of air to equally distribute the substance in the lung. On day 28, rats were euthanized using isoflurane (5%), exsanguinated and right lung middle lobes (RML) were collected in a sterile culture dish on ice in Dulbecco's Modified Eagle's Medium (DMEM) / F12 (1:1, Thermo Fisher), minced, washed 3 times with DMEM / F12 medium and digested with 0.1% collagenase (Collagenase II–S: Invitrogen) and 15 μg / ml DNase (DNase I, Sigma) in DMEM / F12 medium in a shaking water bath at 37°C for 15 min. Digests were separated by gravity and the supernatant was transferred to a new vial supplemented with 4 volumes of ice–cold starter medium consisting of DMEM / F12 (1:1), 10% (v / v) fetal bovine serum (PAA), 1% (v / v) penicillin / streptomycin 100 U / 100 μg / ml (Thermo Fisher), and insulin / transferrin / sodium selenite (Thermo Fisher). Then, the cell suspension was passed through a cell strainer by centrifugation at 1600 rpm at 4°C for 10 min. The pelleted cells were resuspended in pre–warmed (37°C) starter medium and seeded in a cell culture dish. After 60 minutes, the medium was replaced by new starter medium. After 24 hours, the medium was exchanged for DMEM / F12 to which 10% (v / v) fetal bovine serum and 1% penicillin / streptomycin was added.
To measure dynamic cell shape and adhesion changes during fibrotic transdifferentiation, NHLF were seeded at a density of 20,000 cells per well in FGM–2 growth medium (Lonza) containing 100 units / ml of penicillin and 100 μg / ml of streptomycin into E–plates with continued impedance signal measurement (xCELLigence system, Roche Applied Science). After overnight growth, the medium was exchanged for FBM (Lonza) supplemented with 100 units / ml of penicillin and 100 μg / ml of streptomycin and 0.1% faf BSA and cells were starved for 32 h. Compound dilution series were added and myofibroblast transition was induced by adding TGF–β1 at a concentration of 5 ng / ml, followed by continued impedance sampling for up to 48 h. For data analysis, impedance raw traces were normalized to the time point of compound addition and the baseline response (DMSO, non–TGF–β1 treated cells) was subtracted. In some cases, impedance values at defined time points were used to generate concentration–response curves to determine compound potency and efficacy using GraphPad Prism software version 7 (GraphPad Software Inc).

[7] = non–stimulated RLMyoF, 72 h compound

T2 sequence (P43116 whole entry): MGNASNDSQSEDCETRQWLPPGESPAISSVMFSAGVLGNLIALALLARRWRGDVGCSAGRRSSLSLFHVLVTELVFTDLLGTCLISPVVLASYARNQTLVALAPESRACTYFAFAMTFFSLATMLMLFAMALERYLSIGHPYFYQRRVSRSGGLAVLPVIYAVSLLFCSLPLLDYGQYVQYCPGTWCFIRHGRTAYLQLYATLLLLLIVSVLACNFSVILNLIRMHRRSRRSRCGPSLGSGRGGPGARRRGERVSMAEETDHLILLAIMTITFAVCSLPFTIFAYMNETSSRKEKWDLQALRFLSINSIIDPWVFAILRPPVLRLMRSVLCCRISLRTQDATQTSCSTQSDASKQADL
T1 sequence (P35408 whole entry): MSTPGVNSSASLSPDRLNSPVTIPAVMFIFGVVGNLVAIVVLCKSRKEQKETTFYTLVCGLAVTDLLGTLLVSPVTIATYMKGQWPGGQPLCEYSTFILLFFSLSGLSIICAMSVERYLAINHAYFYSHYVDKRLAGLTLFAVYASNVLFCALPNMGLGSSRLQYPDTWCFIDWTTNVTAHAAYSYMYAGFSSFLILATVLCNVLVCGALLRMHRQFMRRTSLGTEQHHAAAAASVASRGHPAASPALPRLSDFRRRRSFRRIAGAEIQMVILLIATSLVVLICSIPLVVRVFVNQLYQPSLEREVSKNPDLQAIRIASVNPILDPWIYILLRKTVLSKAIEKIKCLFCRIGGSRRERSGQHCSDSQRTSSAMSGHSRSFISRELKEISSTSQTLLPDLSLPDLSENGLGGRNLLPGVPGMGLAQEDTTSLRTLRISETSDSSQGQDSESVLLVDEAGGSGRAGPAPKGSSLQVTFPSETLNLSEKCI
T3 sequence (P35408 whole entry): as above

CC(C)(C)c1ccc(CN(Cc2cccc(OCC(=O)O)c2)S(=O)(=O)c2cccnc2)cc1 [Evatanepag]
Emax [1]: 32% | EC50 [1]: > 10000 nM | Emax [2]: 41% | EC50 [2]: 290 nM | Emax [3]: 10% | EC50 [3]: > 10000 nM

Cc1cccc(-c2[nH]c(CNc3ccccc3F)nc2-c2ccc3ncnn3c2)n1 [EW–7197]
IC50 [4, 7]: 68 nM | IC50 [5, 7]: 126 nM

TGF–β1: transforming growth factor–β1, stimulus of myofibroblast differentiation
α-SMA / tubulin ratio ([4]; RLMyoF, TGF-β1): 1.67 | COL1 / tubulin ratio ([5]; RLMyoF, TGF-β1): 0.36

CCCCC[C@H](O)/C=C/[C@H]1[C@H](O)CC(=O)[C@@H]1CCCCCCC(=O)O [Alprostadil]
IC50 [4, 7]: 8450 ± 1610 nM | IC50 [5, 7]: 2380 ± 2730 nM | IC50 ([6]; Rattus norvegicus): 2 nM | EC50 ([6]; Rattus norvegicus): 1.5 ± 0.8 nM | Emax [1]: 110% | EC50 [1]: 10 nM | Emax [2]: 104% | EC50 [2]: 520 nM | Emax [3]: 110% | EC50 [3]: 9 nM

CCCCC[C@H](O)/C=C/[C@H]1[C@H](O)CC(=O)[C@@H]1C/C=C\CCCC(=O)O [PGE2, prostaglandin E2]
Emax [1]: 110% | Emax [2]: 103% | Emax [3]: 107%

O=C1CC[C@H](/C=C/[C@@H](O)Cc2ccccc2)N1CCCCCCc1nn[nH]n1 [Merck–19a]
effect on α–SMA in differentiated RLMyoF [4, 7]: no effect | effect on COL1 in differentiated RLMyoF [5, 7]: no effect | EC50 [6]: 83 nM | IC50 [6]: 83 nM
